Among the data in patent US7071210B2, “CETP inhibitors in combination with antihypertensive agents and uses thereof” (Pfizer Inc., priority 2002, dated 2006) are solubility values, retold here.

This data set can be described thus: Aqueous solubility. The class given is physicochemical. The following applies: aqueous environments.

Compound `CCOC(=O)N1c2ccc(C(F)(F)F)cc2[C@@H](N(Cc2cc(C(F)(F)F)cc(C(F)(F)F)c2)C(=O)OC)C[C@H]1CC` [torceptrapib, [2R,4S]-4-[(3,5-bis-trifluoromethyl-benzyl)-methoxycarbonyl-amino]-2-ethyl-6-trifluoromethyl-3,4-dihydro-2H-quinoline-1-carboxylic acid ethyl ester] gave a solubility of less than 0.04 µg/mL.
